Results on eight compounds are retold here after patent US11673897B2, “Compounds for the treatment of kinase-dependent disorders” (Exelixis, Inc., priority 2018, dated 2023).

Common to all, as to type: cell-based
Assay [1] has as its target AXL (Homo sapiens (Human), UniProt P30530). Description: AXL autophosphorylation ELISA in A-172 cells. To be noted: cellular, Gas6-stimulated, phospho-AXL ELISA. The method, boiled down: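 A-172 glioblastoma cells, serum-starved 24 h, took compounds for 1 h (8-point curve, 0.3% DMSO) before 15 min stimulation with 1 μg/mL recombinant human Gas6. Lysate phospho-AXL measured by ELISA against a phospho-AXL standard, normalized to DMSO (100%) and reference inhibitor (0%); IC50 from 4-parameter logistic fit.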

For assay [2], the target named is Met (Homo sapiens (Human), UniProt P08581). Description: Met autophosphorylation ELISA in PC-3 cells. The note with it: cellular, HGF-stimulated, phospho-Met ELISA, read-out: c-Met IC50. In short, it runs like this: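 PC-3 cells serum-starved 3 h were treated 1 h with an 8-point compound series (0.3% DMSO), then stimulated 10 min with 100 ng/mL human HGF. Phospho-Met (panTyr) in lysates was measured by sandwich ELISA against DMSO (100%) and reference-inhibitor (0%) controls, and IC50 came from a 4-parameter logistic fit.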
Sequence of Met (P08581 25-1390): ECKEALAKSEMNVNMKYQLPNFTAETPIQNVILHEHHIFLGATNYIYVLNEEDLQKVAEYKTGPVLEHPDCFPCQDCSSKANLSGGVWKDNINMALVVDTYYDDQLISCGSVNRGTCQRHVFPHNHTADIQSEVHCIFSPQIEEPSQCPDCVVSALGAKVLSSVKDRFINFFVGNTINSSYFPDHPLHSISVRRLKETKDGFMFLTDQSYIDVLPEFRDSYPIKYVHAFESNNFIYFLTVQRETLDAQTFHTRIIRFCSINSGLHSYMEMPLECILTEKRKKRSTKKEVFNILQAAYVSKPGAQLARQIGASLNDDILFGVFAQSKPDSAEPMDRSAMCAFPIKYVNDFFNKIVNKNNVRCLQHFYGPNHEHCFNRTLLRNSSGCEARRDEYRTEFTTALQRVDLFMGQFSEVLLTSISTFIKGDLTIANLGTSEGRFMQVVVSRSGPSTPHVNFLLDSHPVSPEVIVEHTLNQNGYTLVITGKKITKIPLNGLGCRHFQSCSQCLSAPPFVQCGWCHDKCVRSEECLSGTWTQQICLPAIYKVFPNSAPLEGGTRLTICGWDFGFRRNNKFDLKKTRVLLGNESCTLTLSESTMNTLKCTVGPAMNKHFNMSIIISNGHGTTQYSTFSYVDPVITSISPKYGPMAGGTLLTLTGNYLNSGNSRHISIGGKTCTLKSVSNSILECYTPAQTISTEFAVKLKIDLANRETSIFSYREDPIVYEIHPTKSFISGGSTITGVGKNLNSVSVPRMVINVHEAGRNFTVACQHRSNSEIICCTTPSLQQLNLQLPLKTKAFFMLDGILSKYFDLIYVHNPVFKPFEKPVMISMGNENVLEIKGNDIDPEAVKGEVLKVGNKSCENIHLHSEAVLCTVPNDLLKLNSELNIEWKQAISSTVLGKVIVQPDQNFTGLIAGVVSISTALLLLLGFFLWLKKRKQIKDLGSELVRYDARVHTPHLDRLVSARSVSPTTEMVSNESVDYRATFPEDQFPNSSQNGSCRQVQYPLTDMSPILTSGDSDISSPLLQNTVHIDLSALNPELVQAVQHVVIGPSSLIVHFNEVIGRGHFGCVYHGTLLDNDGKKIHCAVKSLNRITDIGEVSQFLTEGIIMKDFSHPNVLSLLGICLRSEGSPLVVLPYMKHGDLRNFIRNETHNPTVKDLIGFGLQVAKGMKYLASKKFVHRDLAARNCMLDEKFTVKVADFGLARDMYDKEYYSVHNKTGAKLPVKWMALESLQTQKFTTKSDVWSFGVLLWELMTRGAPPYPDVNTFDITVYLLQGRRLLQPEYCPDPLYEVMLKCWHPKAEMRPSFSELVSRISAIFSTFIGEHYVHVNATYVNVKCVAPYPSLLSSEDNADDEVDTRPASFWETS
(In general: An ELISA detects its analyte on a solid surface through an enzyme-linked reagent.)

The target of assay [3] is KDR (Homo sapiens (Human), UniProt P35968). Nature of the assay: KDR autophosphorylation ELISA in HUVEC cells. The note with it: cellular, VEGF165-stimulated, phospho-KDR ELISA. In short, it runs like this: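 Compound pretreatment (1 h, 0.3% DMSO) of serum-starved HUVEC preceded a 5 min pulse of 100 ng/mL VEGF165, after which cells were lysed. Phospho-KDR was quantified by ELISA relative to stimulated and unstimulated controls.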
Sequence of KDR (P35968 20-1356): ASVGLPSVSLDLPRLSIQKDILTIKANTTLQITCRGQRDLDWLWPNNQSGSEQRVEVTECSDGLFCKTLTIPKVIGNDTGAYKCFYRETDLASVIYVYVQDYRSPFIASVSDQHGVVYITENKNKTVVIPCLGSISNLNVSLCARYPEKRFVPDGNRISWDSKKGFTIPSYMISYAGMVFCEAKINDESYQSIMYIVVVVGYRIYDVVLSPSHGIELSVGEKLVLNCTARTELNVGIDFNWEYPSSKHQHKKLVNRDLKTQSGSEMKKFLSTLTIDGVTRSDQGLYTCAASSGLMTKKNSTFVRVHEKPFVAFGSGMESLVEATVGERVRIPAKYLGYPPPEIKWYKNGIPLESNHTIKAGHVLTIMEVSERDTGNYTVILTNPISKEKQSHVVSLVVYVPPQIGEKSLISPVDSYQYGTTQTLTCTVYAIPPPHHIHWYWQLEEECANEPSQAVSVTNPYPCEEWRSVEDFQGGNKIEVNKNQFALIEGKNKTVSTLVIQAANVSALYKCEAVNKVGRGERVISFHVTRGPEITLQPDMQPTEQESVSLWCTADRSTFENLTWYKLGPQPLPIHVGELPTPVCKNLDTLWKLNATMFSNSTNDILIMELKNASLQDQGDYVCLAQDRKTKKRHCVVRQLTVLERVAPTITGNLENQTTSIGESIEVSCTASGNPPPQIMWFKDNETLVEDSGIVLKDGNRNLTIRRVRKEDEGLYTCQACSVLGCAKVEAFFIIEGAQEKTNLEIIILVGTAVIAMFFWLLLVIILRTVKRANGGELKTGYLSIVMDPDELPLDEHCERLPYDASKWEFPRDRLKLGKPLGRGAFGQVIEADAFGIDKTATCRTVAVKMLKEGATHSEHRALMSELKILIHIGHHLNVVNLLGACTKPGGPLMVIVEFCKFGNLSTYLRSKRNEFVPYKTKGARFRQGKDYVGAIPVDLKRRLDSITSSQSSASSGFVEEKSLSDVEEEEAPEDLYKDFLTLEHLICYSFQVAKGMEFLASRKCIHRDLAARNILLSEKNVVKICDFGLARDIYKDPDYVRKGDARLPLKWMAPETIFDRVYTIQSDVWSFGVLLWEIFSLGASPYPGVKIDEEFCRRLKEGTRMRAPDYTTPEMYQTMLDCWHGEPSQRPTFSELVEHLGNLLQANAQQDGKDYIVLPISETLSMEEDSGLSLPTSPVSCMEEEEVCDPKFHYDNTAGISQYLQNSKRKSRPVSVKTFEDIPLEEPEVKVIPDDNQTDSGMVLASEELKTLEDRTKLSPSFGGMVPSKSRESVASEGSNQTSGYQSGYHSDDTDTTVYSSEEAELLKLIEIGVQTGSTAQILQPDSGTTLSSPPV

Assay [4] has as its target Mer (Homo sapiens (Human), UniProt Q12866). Description: Mer autophosphorylation ELISA in transient transfected 293A cells. The note with it: cellular, MERTK-transfected 293A cells, phospho-Mer ELISA. Here is the method: 293A cells (Thermo Fisher #R70507) were seeded at 1.5×10^6 cells/well onto 100 mm dish (Greiner #664169), in DMEM (Thermo Fisher #11995-040) containing 10% FBS (Thermo Fisher #26140-079), 1% MEM NEAA (Thermo Fisher #11140-050), 1% GlutaMax (Thermo Fisher #35050-061), and 1% Penicillin Streptomycin (Thermo Fisher #15140-122). 293A cells were incubated at 37° C., 5% CO2 for 24 h and then transfected with 6 μg MERTK DNA (Genecopoeia #EX-Z8208-M02) using TransIT LT1 transfection reagent (Mirus-Bio #MIR2305). After 24 h incubation, the transfected 293A cells were seeded at 1×10^5 cells/well onto 96-well plates (Corning #3904) in DMEM growth medium overnight. Test compounds were serially diluted to produce an 8-point dose curve in fresh serum-free medium to a final concentration of 0.3% DMSO (vehicle) and added to the cells and incubated for 1 h. Cells were then immediately lysed with 150 μL of cold 1× lysis buffer [20 mM Tris, 137 mM sodium chloride, 2 mM EDTA, 10% glycerol, 1% NP-40 alternative, 1 mM activated sodium orthovanadate, 1 mM PefaBloc SC (Sigma-Aldrich #11429868001), protease/phosphatase inhibitor tablet (Thermo Fisher #A32959)]. Lysates were clarified by centrifugation and 50 μL/well added into the human phospho-Mer DuoSet IC ELISA (R&D Systems #DYC2579-2). Assay was performed according to manufacturer's instructions and sample phospho-Mer concentrations were extrapolated using human phospho-Mer control (R&D Systems #841793) as a standard. Positive control wells (100% activity) contained DMSO-treated cell lysates. Negative control wells (0% activity) contained reference inhibitor-treated cell lysates. IC50 values were calculated by nonlinear regression analysis using a 4-parameter logistic curve fit in ActivityBase XE (IDBS).

pIC50: −log10 of the molar value. Where only a bound is given, the exact number is not on record here.

Sequence of Mer (Q12866 21-999): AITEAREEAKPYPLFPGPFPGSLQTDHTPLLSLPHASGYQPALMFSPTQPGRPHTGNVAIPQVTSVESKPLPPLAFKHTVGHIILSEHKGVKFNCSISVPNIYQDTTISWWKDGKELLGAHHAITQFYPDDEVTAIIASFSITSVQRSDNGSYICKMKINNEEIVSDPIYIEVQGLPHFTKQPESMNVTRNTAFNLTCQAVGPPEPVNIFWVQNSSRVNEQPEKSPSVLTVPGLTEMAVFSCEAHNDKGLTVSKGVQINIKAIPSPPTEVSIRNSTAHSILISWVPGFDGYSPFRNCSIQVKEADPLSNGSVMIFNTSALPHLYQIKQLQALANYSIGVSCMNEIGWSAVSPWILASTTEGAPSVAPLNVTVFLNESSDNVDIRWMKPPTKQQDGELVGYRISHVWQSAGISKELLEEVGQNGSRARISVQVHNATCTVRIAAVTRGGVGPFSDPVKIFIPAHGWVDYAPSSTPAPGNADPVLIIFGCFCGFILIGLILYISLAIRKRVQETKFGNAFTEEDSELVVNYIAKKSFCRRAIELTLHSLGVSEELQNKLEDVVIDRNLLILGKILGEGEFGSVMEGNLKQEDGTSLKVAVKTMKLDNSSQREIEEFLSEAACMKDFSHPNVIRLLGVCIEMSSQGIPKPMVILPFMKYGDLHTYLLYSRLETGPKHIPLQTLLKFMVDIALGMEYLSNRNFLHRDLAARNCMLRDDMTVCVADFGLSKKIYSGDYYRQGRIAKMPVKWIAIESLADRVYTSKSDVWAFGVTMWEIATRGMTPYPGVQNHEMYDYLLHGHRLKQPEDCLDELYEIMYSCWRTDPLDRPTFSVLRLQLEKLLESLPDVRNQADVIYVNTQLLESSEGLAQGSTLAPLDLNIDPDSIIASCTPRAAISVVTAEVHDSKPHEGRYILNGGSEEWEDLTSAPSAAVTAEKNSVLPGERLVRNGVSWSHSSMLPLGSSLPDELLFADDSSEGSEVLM
Sequence of AXL (P30530 26-894): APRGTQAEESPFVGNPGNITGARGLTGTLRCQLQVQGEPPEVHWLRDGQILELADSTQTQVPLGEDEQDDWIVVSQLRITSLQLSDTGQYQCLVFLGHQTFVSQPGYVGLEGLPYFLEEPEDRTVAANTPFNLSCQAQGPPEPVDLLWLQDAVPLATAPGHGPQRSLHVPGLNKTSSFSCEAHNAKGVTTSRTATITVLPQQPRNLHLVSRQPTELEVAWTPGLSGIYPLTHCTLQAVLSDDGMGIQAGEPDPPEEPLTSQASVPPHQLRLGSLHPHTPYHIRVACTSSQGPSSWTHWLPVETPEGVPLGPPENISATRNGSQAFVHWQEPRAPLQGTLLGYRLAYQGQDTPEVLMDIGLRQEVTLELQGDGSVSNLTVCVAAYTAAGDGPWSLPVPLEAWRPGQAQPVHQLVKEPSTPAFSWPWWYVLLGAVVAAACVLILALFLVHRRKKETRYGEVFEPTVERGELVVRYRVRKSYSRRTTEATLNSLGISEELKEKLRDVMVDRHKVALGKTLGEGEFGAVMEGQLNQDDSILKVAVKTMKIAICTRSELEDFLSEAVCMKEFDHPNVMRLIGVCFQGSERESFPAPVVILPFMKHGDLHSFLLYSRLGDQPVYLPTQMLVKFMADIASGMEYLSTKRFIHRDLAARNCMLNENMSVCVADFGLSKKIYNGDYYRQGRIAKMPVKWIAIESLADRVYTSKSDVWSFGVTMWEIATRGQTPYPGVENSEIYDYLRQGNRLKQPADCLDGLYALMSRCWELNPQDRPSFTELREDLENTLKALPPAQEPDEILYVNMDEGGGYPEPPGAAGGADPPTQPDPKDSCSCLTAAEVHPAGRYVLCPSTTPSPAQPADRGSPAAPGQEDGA

As for `CNC(=O)c1cc2c(Oc3ncc(NC(=O)C4(C(=O)Nc5ccc(F)cc5)CC4)cc3Cl)ccnc2cc1OC` [Compound 19, 1-N′-[5-Chloro-6-[7-methoxy-6-(methylcarbamoyl)quinolin-4-yl]oxypyridin-3-yl]-1-N-(4-fluorophenyl)cyclopropane-1,1-dicarboxamide], the negative logarithm of the IC50 (pIC50) in assay [1] was not below 8.00; in assay [2], 7.00 to 8.00; in assay [3] it was less than 6.52; in assay [4], 7.00 to 8.00.

With `NC(=O)c1cc2c(Oc3ncc(NC(=O)C4(C(=O)Nc5ccc(F)cc5)CC4)cc3Cl)ccnc2cc1OCCO` [Compound 38, 1-N′-[6-[6-Carbamoyl-7-(2-hydroxyethoxy)quinolin-4-yl]oxy-5-chloropyridin-3-yl]-1-N-(4-fluorophenyl)cyclopropane-1,1-dicarboxamide], the negative-log IC50 (pIC50) in assay [1] was 7.00 to 8.00; in assay [2], 7.00 to 8.00; in assay [3] it was less than 6.52; in assay [4] it was 7.00 to 8.00.

With `CNC(=O)c1cc2c(Oc3ncc(NC(=O)C4(C(=O)Nc5ccc(F)cc5)CC4)cc3Cl)ccnc2cc1OCCO` [Compound 37, 1-N′-[5-Chloro-6-[7-(2-hydroxyethoxy)-6-(methylcarbamoyl)quinolin-4-yl]oxypyridin-3-yl]-1-N-(4-fluorophenyl)cyclopropane-1,1-dicarboxamide], the negative-log IC50 (pIC50) in assay [1] is 7.00 to 8.00; in assay [2] it was 7.00 to 8.00; in assay [3], less than 6.52; in assay [4], 6.52 to 7.00.

As for `COCCOc1cc2nccc(Oc3ncc(NC(=O)C4(C(=O)Nc5ccc(F)cc5)CC4)cc3F)c2nc1OC` [Compound 116, 1-N′-[5-Fluoro-6-[[6-methoxy-7-(2-methoxyethoxy)-1,5-naphthyridin-4-yl]oxy]pyridin-3-yl]-1-N-(4-fluorophenyl)cyclopropane-1,1-dicarboxamide], the pIC50 was 7.00 to 8.00 in assay [1], 6.52 to 7.00 in assay [2], less than 6.52 in assay [3] and 7.00 to 8.00 in assay [4].

For the compound `COc1cc2nccc(Oc3ncc(NC(=O)C4(C(=O)Nc5ccc(F)cc5)CC4)cc3F)c2cc1-c1nnco1` [Compound 67, 1-N′-[5-Fluoro-6-[7-methoxy-6-(1,3,4-oxadiazol-2-yl)quinolin-4-yl]oxypyridin-3-yl]-1-N-(4-fluorophenyl)cyclopropane-1,1-dicarboxamide], the negative logarithm of the IC50 (pIC50) was 7.00 to 8.00 in assay [1], 7.00 to 8.00 in assay [2], less than 6.52 in assay [3] and 7.00 to 8.00 in assay [4].

As to `COc1cc2nccc(Oc3ncc(NC(=O)C4(C(=O)Nc5ccc(F)cc5)CC4)cc3F)c2cc1-c1ncc[nH]1` [Compound 72, 1-N′-[5-Fluoro-6-[6-(1H-imidazol-2-yl)-7-methoxyquinolin-4-yl]oxypyridin-3-yl]-1-N-(4-fluorophenyl)cyclopropane-1,1-dicarboxamide], the pIC50 is not below 8.00 in assay [1], 7.00 to 8.00 in assay [2], less than 6.52 in assay [3] and 7.00 to 8.00 in assay [4].

As for `COc1nc2c(Oc3ncc(NC(=O)C4(C(=O)Nc5ccc(F)cc5)CC4)cc3F)ccnc2cc1OCCCN1CCOCC1` [Compound 122, 1-N′-[5-Fluoro-6-[[6-methoxy-7-(3-morpholin-4-ylpropoxy)-1,5-naphthyridin-4-yl]oxy]pyridin-3-yl]-1-N-(4-fluorophenyl)cyclopropane-1,1-dicarboxamide], the pIC50 is 7.00 to 8.00 in assay [1], 7.00 to 8.00 in assay [2], less than 6.52 in assay [3] and 7.00 to 8.00 in assay [4].

Regarding `COc1cc2nccc(Oc3nc(F)c(NC(=O)C4(C(=O)Nc5ccc(F)cc5)CC4)cc3F)c2nc1OC` [Compound 96, 1-N′-[6-[(6,7-Dimethoxy-1,5-naphthyridin-4-yl)oxy]-2,5-difluoropyridin-3-yl]-1-N-(4-fluorophenyl)cyclopropane-1,1-dicarboxamide], the negative-log IC50 (pIC50) in assay [1] was not below 8.00; in assay [2] it was 7.00 to 8.00; in assay [3], less than 6.52; in assay [4] it was 7.00 to 8.00.

In general, pIC50 refers to the IC50 on a negative log10 scale, so that one unit is a factor of ten.
